The values that follow come from US6902903B1, “Helicobacter pylori diagnostics” (Chiron Corporation, priority 1996, dated 2005).

Like-named read-outs stand apart in the source and are kept apart here.

The subject of experiment [1] is H. pylori antibodies in serum sample. Briefly: H. pylori strip immunoblot assay (SIA), band reactivity of immobilized antigens with serum samples. In kind it is binding, human. Set-up: key: band intensity 0 to 4+ vs IgG controls (low IgG = 1+, high = 3+). The protocol:
A. An SIA was done as follows. An H. pylori extract containing a mixture of antigens including type-common antigens was obtained from Bioseed, Inc., Hillsborough, Calif. Briefly, the extract was prepared from an H. pylori bacterium obtained from the American Type Culture Collection (ATCC) having an ATCC strain designation of ATCC 43504. The extract was prepared using detergent extraction and sonication.
The VacA and CagA type-specific antigens, described in Examples 1 and 2, respectively, were applied in discrete bands to nitrocellulose strips at concentrations of 1-2 μg/ml. The lysate including the type-common antigens was coated as another discrete band at a concentration of 0.5-1 μg/ml onto the same nitrocellulose strips. As internal controls, additional bands contained purified human IgG at a low (100-185 ng/ml) and high (500-925 ng/ml) concentration. Other strips were coated with the antigens and lysate as described above, however, on these strips, the lysate was first enhanced with the VacA and CagA antigens added to the lysate at a concentration of 0.5-1 μg/ml (VacA) and 0.5-μg/ml (CagA). FIG. 1 is a diagram of a nitrocellulose strip with the antigens as described above.
For the immunoblot assay, strips were processed in a batch fashion with 30 strips per batch. All steps were performed at room temperature. Each strip was numbered and then placed in a separate tube to which was added 1 ml of diluent (phosphate-buffered saline (PBS) with bovine protein stabilizers and detergents, 0.1% sodium azide and 0.05% gentamicin sulfate as preservatives) and 30 μl of a serum sample from an individual known to be infected with H. pylori Type I, suspected of being infected with H. pylori Type I or a control subject, was applied. The tubes were rocked gently for 4 h, the solution removed by aspiration, and 1 ml of fresh diluent was added to each tube. The tubes were rocked for 30 minutes, the solution removed by aspiration and 1 ml of wash buffer made from wash buffer concentrate (50×) (phosphate-buffered detergent solution with 0.01% thimerosal as a preservative) was added to each tube. The contents of each tube were emptied into a single wash vessel and the strips were washed by swirling for 20 seconds. The wash buffer was decanted and 30 ml of fresh buffer added and the process repeated. Residual solution was removed by aspiration and 20 ml of conjugate solution (peroxidase-labeled goat anti-human IgG (heavy and light chains), with bovine protein stabilizers, containing 0.01% thimerosal as a preservative) was added. The vessel was rotated at 110 rpm for 10 minutes, the conjugate solution was decanted and the wash step was repeated three times. Residual solution was again removed by aspiration and 20 ml of substrate/developer (4-chloro-1-napthol in methanol/phosphate-buffered hydrogen peroxide) added, followed by rotation for 15-20 minutes at 110 rpm. The solution was decanted and the strips were washed twice in distilled water. Developed strips were placed face up on absorbent paper and allowed to dry for 30 minutes in the dark. Strips were then read within 3 h of drying. The intensity of the color of the H. pylori antigen bands were assigned values ranging from −(0) to 4+using the following algorithm. The low IgG band is assigned a value of 1+, the high IgG band is assigned a value of 3+. The lysate and VacA and CagA bands are then scored from 0 to 4+according to how their band intensity compares to that of the IgG control bands.
Samples with any of the H. pylori antigen bands scoring 1+ or greater to the lysate band are considered to be positive for H. pylori infection. Reactivity of 1+ or greater to the lysate band, in addition to reactivity of 1+ or greater to the CagA and/or VacA band, is considered positive for H. pylori Type I infection. Samples showing no reactivity of 1+ or greater to any bands are considered negative. […]
For orientation: A western blot detects proteins with antibodies after separation by electrophoresis.

In experiment [2] the test system is H. pylori infection. Nature of the experiment: Antibiotic therapy of H. pylori infection, response monitored by SIA. In kind it is in vivo, Helicobacter pylori. To be noted: individuals undergoing antibiotic regimen, determined with the SIA. The protocol:
For the immunoblot assay, strips were processed in a batch fashion with 30 strips per batch. All steps were performed at room temperature. Each strip was numbered and then placed in a separate tube to which was added 1 ml of diluent (phosphate-buffered saline (PBS) with bovine protein stabilizers and detergents, 0.1% sodium azide and 0.05% gentamicin sulfate as preservatives) and 30 μl of a serum sample from an individual known to be infected with H. pylori Type I, suspected of being infected with H. pylori Type I or a control subject, was applied. The tubes were rocked gently for 4 h, the solution removed by aspiration, and 1 ml of fresh diluent was added to each tube. The tubes were rocked for 30 minutes, the solution removed by aspiration and 1 ml of wash buffer made from wash buffer concentrate (50×) (phosphate-buffered detergent solution with 0.01% thimerosal as a preservative) was added to each tube. The contents of each tube were emptied into a single wash vessel and the strips were washed by swirling for 20 seconds. The wash buffer was decanted and 30 ml of fresh buffer added and the process repeated. […] Strips were then read within 3 h of drying. […] The lysate and VacA and CagA bands are then scored from 0 to 4+according to how their band intensity compares to that of the IgG control bands. […]

Experiment [3] has as its system H. pylori infection. To be noted: individuals undergoing antibiotic regimen for H. pylori infection; cited from earlier work.
Another experiment concerns antibodies to CagA. As to conditions: cited from earlier work.
Where [4] appears, read: Responder to antibiotic therapy, Prebleed.

Turning to “VacA: Recombinant 71.2 kDa fusion: 154 aa human SOD, five aa linker, VacA Gly-311 through Ile-819 of H. pylori CCUG17874”, the “Band reactivity (intensity value), therapy monitoring” value (“Band reactivity (intensity value)” for short) was 2.49 in experiment [1] (Non-Responder, 8 M); 2.10 in experiment [1] (Non-Responder, 16 M); 2.54 in experiment [1] (Non-Responder, Prebleed); 0.31 in experiment [1] (setting [4]); 0.26 in experiment [1] (Responder, 1 M); 0.33 in experiment [1] (Responder, 3 M). The “Band reactivity (intensity value)” value in experiment [1] (Responder, 6 M) was determined as 0.29; in experiment [1] (Responder, 9 M), 0.21; in experiment [1] (Responder, 12 M) it was 0.18.

As to `Cc1ncc([N+](=O)[O-])n1CCO` [Single, Metronidazole], in the experiment on H. pylori infection [2], the “% Responders by SIA” value is recorded as 20% and the “Responders (responders/tested) by SIA” value is on record as 1/5. Besides, the “Response Rate Reported” value with H. pylori infection [3] was 19%.

B1: CagA: Recombinant truncated CagA of 268 amino acids, 29.2 kDa, Glu-748 through Glu-1015, H. pylori strain Chetx-1 (protein, listed as Helicobacter pylori)
chain: MEFKNGKNKDFSKVTQAKSDLENSIKDVIFNQKITDKVDDLNQAVSVAKATGDFSRVEQALADLKNFSKEQLAQQAQKNESLNAGKKSEIYQSVKNGVNGTLVGNGLSQAEATTLSKNFSDIKKELNAKLFGNFNNNNNNGLKNSTEPIYAKVNKKKTGQVASPEEPIYTQVAKKVNAKIDRLNQIASGLGGVGKAAGFPLKRHDKVDDLSKVGRSVSPEPIYATIDDLGGPFPLKRHDKVDDLSKVGLSRNQELAQKIDNLNQAVSE
Turning to B1, the “patients CagA seropositive” value in the experiment on antibodies to CagA (patients suffering from gastric ulcer) was “more than 70%”; in the experiment with antibodies to CagA (patients with duodenal ulcer or duodenitis) it was “more than 95%”. Moreover, the “Band reactivity (intensity value)” value in experiment [1] (Non-Responder, 8 M) turned out to be 0.99; in experiment [1] (Non-Responder, 16 M) it was 0.90; in experiment [1] (Non-Responder, Prebleed), 1.31; in experiment [1] (setting [4]), 1.92; in experiment [1] (Responder, 1 M), 1.69; in experiment [1] (Responder, 3 M), 1.09. The “Band reactivity (intensity value)” value turned out to be 0.90 in experiment [1] (Responder, 6 M); 0.73 in experiment [1] (Responder, 9 M); 0.43 in experiment [1] (Responder, 12 M).
